Results reported in patent publication US10472347B2, “Aminopyrazine compounds with A2A antagonist properties” (Merck Sharp & Dohme Corp., priority 2014, dated 2019).
pKi: −log10 of the molar value.

Target: T1, human A2a receptor (Homo sapiens, UniProt P29274)
T1 construct: purchased Perkin-Elmer RBHA2AM400UA; host or cells: HEK293 cells (membranes)
Experiment: A2a competition binding assay, Scintillation Proximity technology
Settings: membranes from HEK293 cells expressing human A2a receptor; Ki by Cheng-Prusoff equation
How it was run: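 SPA competition: 0.5 nM tritiated pyrazolotriazolopyrimidine ligand displaced by compound at 3000 to 0.15 nM, 1 h room temperature, human A2a HEK293 membranes pretreated with adenosine deaminase, PBS/10 mM MgCl2 buffer. CGS15943 1 μM defined non-specific binding; EC50 converted to Ki via Cheng-Prusoff.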

T1 sequence (P29274 whole entry): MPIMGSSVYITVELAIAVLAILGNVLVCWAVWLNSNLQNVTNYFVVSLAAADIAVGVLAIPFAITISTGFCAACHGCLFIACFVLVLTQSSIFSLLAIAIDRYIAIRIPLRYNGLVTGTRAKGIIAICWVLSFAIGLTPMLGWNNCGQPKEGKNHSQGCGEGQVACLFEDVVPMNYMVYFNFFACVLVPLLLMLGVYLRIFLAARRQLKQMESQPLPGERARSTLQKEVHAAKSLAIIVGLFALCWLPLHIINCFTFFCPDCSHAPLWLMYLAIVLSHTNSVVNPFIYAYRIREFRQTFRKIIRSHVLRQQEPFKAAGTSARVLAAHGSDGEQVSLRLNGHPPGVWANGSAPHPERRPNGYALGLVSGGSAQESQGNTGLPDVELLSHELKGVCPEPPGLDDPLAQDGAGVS

Row | Structure (SMILES) | pKi
1 | CCc1cnc(CNC(=O)c2nc(C)c(-c3ncco3)nc2N)nc1 [Ex-199, 3-amino-N-[(5-ethylpyrimidin-2-yl)methyl]-6-methyl-5-(1,3-oxazol-2-yl)pyrazine-2-carboxamide] | 8.03
2 | Cc1nc(C(=O)N[C@H]2CCc3cc(F)ccc32)c(N)nc1-c1ncco1 [Ex-200, 3-amino-N-[(1S)-5-fluoro-2,3-dihydro-1H-inden-1-yl]-6-methyl-5-(1,3-oxazol-2-yl)pyrazine-2-carboxamide] | 7.83
3 | Cc1nc(C(=O)N[C@H]2CCc3ccc(F)cc32)c(N)nc1-c1ncco1 [Ex-201, 3-amino-N-[(1S)-6-fluoro-2,3-dihydro-1H-inden-1-yl]-6-methyl-5-(1,3-oxazol-2-yl)pyrazine-2-carboxamide] | 9.20
4 | Cc1nc(C(=O)N[C@@H]2CCC[C@H]2O)c(N)nc1-c1ncco1 [Ex-202, 3-amino-N-[(1R,2R)-2-hydroxycyclopentyl]-6-methyl-5-(1,3-oxazol-2-yl)pyrazine-2-carboxamide] | 8.65
5 | Cc1nc(C(=O)N[C@H]2CCC[C@H]2F)c(N)nc1-c1ncco1 [Ex-203, 3-amino-N-[(1S,2R)-2-fluorocyclopentyl]-6-methyl-5-(1,3-oxazol-2-yl)pyrazine-2-carboxamide] | 8.46
6 | Cc1nc(C(=O)N[C@@H]2CCC[C@H]2N(C)C)c(N)nc1-c1ncco1 [Ex-204, 3-amino-N-[(1R,2R)-2-(dimethylamino)cyclopentyl]-6-methyl-5-(1,3-oxazol-2-yl)pyrazine-2-carboxamide] | 5.82
7 | Cc1nc(C(=O)N(C)[C@@H]2CCC[C@H]2O)c(N)nc1-c1ncco1 [Ex-205, 3-amino-N-[(1R,2R)-2-hydroxycyclopentyl]-N,6-dimethyl-5-(1,3-oxazol-2-yl)pyrazine-2-carboxamide] | 6.41
8 | Cc1nc(C(=O)N[C@@H]2CCC[C@H]2F)c(N)nc1-c1ncco1 [Ex-206, 3-amino-N-[(1R,2R)-2-fluorocyclopentyl]-6-methyl-5-(1,3-oxazol-2-yl)pyrazine-2-carboxamide] | 8.43
9 | Cc1nc(C(=O)N[C@H]2[C@H](C)CC[C@H]2O)c(N)nc1-c1ncco1 [Ex-207, 3-amino-N-[(1S,2R,5R)-2-hydroxy-5-methylcyclopentyl]-6-methyl-5-(1,3-oxazol-2-yl)pyrazine-2-carboxamide] | 8.53
10 | C#CC[C@H]1CCC[C@H]1NC(=O)c1nc(C)c(-c2ncco2)nc1N [Ex-208, 3-amino-6-methyl-5-(1,3-oxazol-2-yl)-N-[(1R,2R)-2-prop-2-yl-1-ylcyclopentyl]pyrazine-2-carboxamide] | 9.01
11 | C#C[C@H]1CCC[C@@H]1NC(=O)c1nc(C)c(-c2ncco2)nc1N [Ex-209, 3-amino-N-[(1S,2R)-2-ethynylcyclopentyl]-6-methyl-5-(1,3-oxazol-2-yl)pyrazine-2-carboxamide] | 8.53
12 | Cc1nc(C(=O)NC2CCCC2F)c(N)nc1-c1ncco1 (stereo not shown) [Ex-210, 3-amino-N-(2-fluorocyclopentyl)-6-methyl-5-(1,3-oxazol-2-yl)pyrazine-2-carboxamide] | 8.85
13 | Cc1nc(C(=O)N[C@H]2CCC[C@@H]2O)c(N)nc1-c1ncco1 [Ex-211, 3-amino-N-[(1S,2S)-2-hydroxycyclopentyl]-6-methyl-5-(1,3-oxazol-2-yl)pyrazine-2-carboxamide] | 8.13
14 | Cc1nc(C(=O)N[C@@H]2CCC[C@@H]2O)c(N)nc1-c1ncco1 [Ex-212, 3-amino-N-[(1R,2S)-2-hydroxycyclopentyl]-6-methyl-5-(1,3-oxazol-2-yl)pyrazine-2-carboxamide] | 7.00
15 | Cc1nc(C(=O)N[C@@H]2C[C@H]3CC[C@@H]2C3)c(N)nc1-c1ncco1 [Ex-213, 3-amino-N-[(1R,2R,4S)-bicyclo[2.2.1]hept-2-yl]-6-methyl-5-(1,3-oxazol-2-yl)pyrazine-2-carboxamide] | 9.38
16 | Cc1nc(C(=O)NCc2nccc3c2ccn3C)c(N)nc1-c1ncco1 [Ex-214] | 9.16
